Measured values reported in ChEMBL document CHEMBL4257449, “New N-(2-phenyl-4-oxo-1,3-thiazolidin-3-yl)-1,2-benzothiazole-3-carboxamides and acetamides as antimicrobial agents” (2017).

Columns and labels:
[1] = test system: Penicillium ochrochloron; test: Fungicidal activity against Penicillium ochrochloron ATCC 9112 incubated for 72 hrs followed by serial sub-cultivation for 72 hrs and measured after 72 hrs by serial dilution method; type: functional
[2] = test system: Enterobacter cloacae; test: Bactericidal activity against Enterobacter cloacae incubated for 24 hrs followed by serial sub-cultivation and measured after 24 hrs by microdilution method; type: functional
[3] = test system: Candida albicans; test: Antifungal activity against Candida albicans after 72 hrs by serial dilution method; type: functional
[4] = test system: Bacillus cereus; test: Antibacterial activity against Bacillus cereus after 24 hrs by microdilution method; type: functional
[5] = test system: Salmonella typhimurium; test: Bactericidal activity against Salmonella typhimurium ATCC 13311 incubated for 24 hrs followed by serial sub-cultivation and measured after 24 hrs by microdilution method; type: functional, Salmonella enterica subsp. enterica serovar Typhimurium
[6] = test system: Talaromyces funiculosus; test: Fungicidal activity against Penicillium funiculosum ATCC 36839 incubated for 72 hrs followed by serial sub-cultivation for 72 hrs and measured after 72 hrs by serial dilution method; type: functional
[7] = test system: Enterobacter cloacae; test: Antibacterial activity against Enterobacter cloacae after 24 hrs by microdilution method; type: functional
[8] = test system: Aspergillus fumigatus; test: Antifungal activity against Aspergillus fumigatus after 72 hrs by serial dilution method; type: functional
[9] = test system: Trichoderma viride; test: Fungicidal activity against Trichoderma viride IAM 5061 incubated for 72 hrs followed by serial sub-cultivation for 72 hrs and measured after 72 hrs by serial dilution method; type: functional
[10] = test system: Talaromyces funiculosus; test: Antifungal activity against Penicillium funiculosum ATCC 36839 after 72 hrs by serial dilution method; type: functional; conditions: ATCC 36839, 72 h
[11] = test system: Aspergillus versicolor; test: Fungicidal activity against Aspergillus versicolor ATCC 11730 incubated for 72 hrs followed by serial sub-cultivation for 72 hrs and measured after 72 hrs by serial dilution method; type: functional
[12] = test system: Pseudomonas aeruginosa; test: Bactericidal activity against Pseudomonas aeruginosa ATCC 27853 incubated for 24 hrs followed by serial sub-cultivation and measured after 24 hrs by microdilution method; type: functional
[13] = test system: Aspergillus fumigatus; test: Fungicidal activity against Aspergillus fumigatus incubated for 72 hrs followed by serial sub-cultivation for 72 hrs and measured after 72 hrs by serial dilution method; type: functional
[14] = test system: Aspergillus niger; test: Antifungal activity against Aspergillus niger ATCC 6275 after 72 hrs by serial dilution method; type: functional; conditions: ATCC 6275, 72 h
[15] = test system: Penicillium ochrochloron; test: Antifungal activity against Penicillium ochrochloron ATCC 9112 after 72 hrs by serial dilution method; type: functional; conditions: ATCC 9112, 72 h
[16] = test system: Aspergillus ochraceus; test: Antifungal activity against Aspergillus ochraceus ATCC 12066 after 72 hrs by serial dilution method; type: functional; conditions: ATCC 12066, 72 h
[17] = test system: Aspergillus versicolor; test: Antifungal activity against Aspergillus versicolor ATCC 11730 after 72 hrs by serial dilution method; type: functional; conditions: ATCC 11730, 72 h
[18] = test system: Escherichia coli; test: Antibacterial activity against Escherichia coli ATCC 35210 after 24 hrs by microdilution method; type: functional; conditions: ATCC 35210, 24 h
[19] = test system: Listeria monocytogenes; test: Antibacterial activity against Listeria monocytogenes NCTC 7973 after 24 hrs by microdilution method; type: functional; conditions: NCTC 7973, 24 h
[20] = test system: Trichoderma viride; test: Antifungal activity against Trichoderma viride IAM 5061 after 72 hrs by serial dilution method; type: functional; conditions: IAM 5061, 72 h
[21] = test system: Candida albicans; test: Fungicidal activity against Candida albicans incubated for 72 hrs followed by serial sub-cultivation for 72 hrs and measured after 72 hrs by serial dilution method; type: functional
[22] = test system: Micrococcus flavus; test: Bactericidal activity against Micrococcus flavus ATCC 10240 incubated for 24 hrs followed by serial sub-cultivation and measured after 24 hrs by microdilution method; type: functional
[23] = test system: Staphylococcus aureus; test: Antibacterial activity against Staphylococcus aureus ATCC 6538 after 24 hrs by microdilution method; type: functional; conditions: ATCC 6538, 24 h
[24] = test system: Listeria monocytogenes; test: Bactericidal activity against Listeria monocytogenes NCTC 7973 incubated for 24 hrs followed by serial sub-cultivation and measured after 24 hrs by microdilution method; type: functional
[25] = test system: Aspergillus ochraceus; test: Fungicidal activity against Aspergillus ochraceus ATCC 12066 incubated for 72 hrs followed by serial sub-cultivation for 72 hrs and measured after 72 hrs by serial dilution method; type: functional
[26] = test system: Micrococcus flavus; test: Antibacterial activity against Micrococcus flavus ATCC 10240 after 24 hrs by microdilution method; type: functional; conditions: ATCC 10240, 24 h
[27] = test system: Pseudomonas aeruginosa; test: Antibacterial activity against Pseudomonas aeruginosa ATCC 27853 after 24 hrs by microdilution method; type: functional; conditions: ATCC 27853, 24 h
[28] = test system: Staphylococcus aureus; test: Bactericidal activity against Staphylococcus aureus ATCC 6538 incubated for 24 hrs followed by serial sub-cultivation and measured after 24 hrs by microdilution method; type: functional
[29] = test system: Bacillus cereus; test: Bactericidal activity against Bacillus cereus incubated for 24 hrs followed by serial sub-cultivation and measured after 24 hrs by microdilution method; type: functional
[30] = test system: Escherichia coli; test: Bactericidal activity against Escherichia coli ATCC 35210 incubated for 24 hrs followed by serial sub-cultivation and measured after 24 hrs by microdilution method; type: functional
[31] = test system: Salmonella typhimurium; test: Antibacterial activity against Salmonella typhimurium ATCC 13311 after 24 hrs by microdilution method; type: functional, Salmonella enterica subsp. enterica serovar Typhimurium; conditions: Salmonella enterica, ATCC 13311, 24 h
[32] = test system: Aspergillus niger; test: Fungicidal activity against Aspergillus niger ATCC 6275 incubated for 72 hrs followed by serial sub-cultivation for 72 hrs and measured after 72 hrs by serial dilution method; type: functional

O=C(Cc1nsc2ccccc12)NN1C(=O)CSC1c1ccc(Cl)cc1 (stereo unspecified)
198 µM: MIC [3] | MIC [14] | MIC [23]
372 µM: MIC [8] | MIC [27] | MIC [31]
19.8 ×10⁻² umol/ml: MFC99.5 [1] | MFC99.5 [6] | MFC99.5 [9] | MFC99.5 [11] | MFC99.5 [25] | MBC99.5 [29]
100 µM: MIC [4] | MIC [15] | MIC [16] | MIC [17] | MIC [20]
74.4 ×10⁻² umol/ml: MBC99.5 [2] | MBC99.5 [5] | MBC99.5 [12] | MFC99.5 [13]
744 µM: MIC [19]
111.6 ×10⁻² umol/ml: MBC99.5 [24]
273 µM: MIC [18] | MIC [26]
37.2 ×10⁻² umol/ml: MFC99.5 [21] | MBC99.5 [22] | MBC99.5 [28] | MBC99.5 [30] | MFC99.5 [32]
570 µM: MIC [7]
144 µM: MIC [10]

O=C(Cc1nsc2ccccc12)NN1C(=O)CSC1c1ccccc1Cl (stereo unspecified)
273 µM: MIC [7] | MIC [26]
74.4 ×10⁻² umol/ml: MBC99.5 [12] | MFC99.5 [13] | MBC99.5 [24]
10 ×10⁻² umol/ml: MFC99.5 [9] | MFC99.5 [11]
19.8 ×10⁻² umol/ml: MFC99.5 [1] | MFC99.5 [6] | MFC99.5 [25] | MFC99.5 [32]
144 µM: MIC [14] | MIC [15]
198 µM: MIC [3] | MIC [4] | MIC [18] | MIC [23] | MIC [31]
74 µM: MIC [17] | MIC [20]
100 µM: MIC [10] | MIC [16]
372 µM: MIC [8] | MIC [19] | MIC [27]
37.2 ×10⁻² umol/ml: MBC99.5 [2] | MBC99.5 [5] | MFC99.5 [21] | MBC99.5 [22] | MBC99.5 [28] | MBC99.5 [29] | MBC99.5 [30]

O=C(Cc1nsc2ccccc12)NN1C(=O)CSC1c1cccc(Cl)c1 (stereo unspecified)
198 µM: MIC [4] | MIC [7] | MIC [18] | MIC [19] | MIC [26] | MIC [27]
37.2 ×10⁻² umol/ml: MBC99.5 [2] | MBC99.5 [5] | MBC99.5 [12] | MFC99.5 [13] | MBC99.5 [22] | MBC99.5 [24] | MBC99.5 [28] | MBC99.5 [29] | MBC99.5 [30]
74 µM: MIC [15] | MIC [16]
50 µM: MIC [20]
19.2 ×10⁻² umol/ml: MFC99.5 [11] | MFC99.5 [32]
19.8 ×10⁻² umol/ml: MFC99.5 [6] | MFC99.5 [21]
10 ×10⁻² umol/ml: MFC99.5 [1] | MFC99.5 [9] | MFC99.5 [25]
100 µM: MIC [3] | MIC [8] | MIC [10] | MIC [14] | MIC [17] | MIC [23] | MIC [31]
